Measured values from patent US20240041840A1 (Areteia Therapeutics, Inc., priority 2020, published 2024).
Like-named read-outs stand apart in the source and are kept apart here.

Tested on: subjects with eosinophilic asthma
Conditions: for ACQ-6 Change from Baseline LSM / ACQ-6 Difference vs Placebo LSM (95% CI): 12 weeks
Source text: The ACQ cutoff for well-controlled asthma is a score of about 0.75, and the ACQ cutoff for uncontrolled asthma is a score of about ≥1.5. An ACQ score change of ≥0.5 is considered clinically significant.
Evaluation of Efficacy: Blood eosinophil count, changes in pulmonary function (FEV1), Asthma Control Questionnaire (ACQ-6), Asthma Control Questionnaire (ACQ-7), Asthma Quality of Life Questionnaire (AQLQ), exhaled nitric oxide, pharyngeal and nasal eosinophil peroxidase were collected periodically during the study.
Juniper Asthma Control Six Point Questionnaire (ACQ-6)—Baseline and visits 5, 8, 11 and 14. The ACQ-6 will be used to assess improvements in asthma symptom control (6). The ACQ-6 was originally validated in participants with asthma aged 17 to 90 years (2, 3, and is one of several asthma control measures recommended by GINA Guidelines). The ACQ-6 consists of 6 items: 5 items on symptom assessment, 1 item on rescue bronchodilator use. The ACQ-6 has been fully validated, including a minimal important difference (MID) or smallest change that can be considered clinically important (0.5). The ACQ-6 will be self-administered at the clinic (questions 1-6 only) and it only takes a few minutes to complete. Participants are asked how they have been feeling during the past week and to score each item on a […] response scale, where 0 indicates ‘totally controlled’ and 6 indicates ‘severely uncontrolled.’ The total score is calculated as the mean of all questions. The questionnaire should always be completed before any other assessments.

**Q.** Which “ACQ-6 Change from Baseline LSM” value (75 mg/day) does the source give for `CCCN[C@@H]1CCc2nc(N)sc2C1` [dexpramipexole, (6R)-2-amino-4,5,6,7-tetrahydro-6-(propylamino) benzothiazole] here?
**A.** The value was −0.419.

**Q.** What about the “ACQ-6 Difference vs Placebo LSM (95% CI)” value (75 mg/day) of the same molecule?
**A.** The value was −0.0276 (−0.560, 0.505).

**Q.** What about the “ACQ-6 Change from Baseline LSM” value (150 mg/day) of the same molecule?
**A.** The value was −0.437.

**Q.** What about the “ACQ-6 Difference vs Placebo LSM (95% CI)” value (150 mg/day) of the same molecule?
**A.** Its value is −0.0457 (−0.575, 0.484).

**Q.** And the “ACQ-6 Change from Baseline LSM” value (300 mg/day)?
**A.** The value was −0.655.

**Q.** What about the “ACQ-6 Difference vs Placebo LSM (95% CI)” value (300 mg/day) of the same molecule?
**A.** The value was −0.264 (−0.772, 0.245).

**Q.** What about the ACQ-6 scores (across several dose groups, 12 weeks (Table 13)) of the same molecule?
**A.** Its ACQ-6 scores is “improved”.
